What was measured:
[1] = target: T1, hFASN enzyme (full length) (Homo sapiens, UniProt P49327); assay: Fatty Acid Synthase (FASN) inhibition scintillation proximity assay; assay type: biochemical; details: for inhibition at 10 µM: read-out: Human FASN % inhibition @ 10 μM, 10 μM test compound; for IC50: read-out: Human FASN pIC50 (converted)
T1 construct: 10 μL hFASN enzyme (full length, 300 ng, purified in house); made in house
Summary of the method: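 Purified full-length hFASN (300 ng) converts ^3H-acetyl-CoA plus malonyl-CoA to ^3H-palmitate in 100 mM KH2PO4 pH 7.5, 1 mM DTT; compounds tested at 0.01–30 μM. Product captured on streptavidin imaging beads and read by LEADseeker at 610 nm after ≥24 h; 4-parameter logistic fit versus controls.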

A2780 ovarian cells [2] = assay: A2780 ovarian cell proliferation assay in lipid reduced medium, with palmitate (MTT); assay type: cell-based; details: Homo sapiens, A2780, 96 h; read-out: pIC50 A2780 Ovarian Cell, With Palmitate (converted)
Summary of the method: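 Seeded cells were switched next day to lipid-reduced serum, exposed to compound and 25 μM palmitate complexed with fatty-acid-free BSA, and incubated 96 h. Proliferation was then determined by MTT absorbance at 544 nm, with a best-fit curve of signal against concentration.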

A2780 ovarian cells [3] = assay: A2780 ovarian cell proliferation assay in lipid reduced medium, without palmitate (MTT); assay type: cell-based; details: Homo sapiens, A2780, 96 h; read-out: pIC50 A2780 Ovarian Cell, Without Palmitate (converted)
[4] = tested on: LNCaP-Vancouver prostate cells; assay: In vitro LNCaP Vancouver prostate cell proliferation assay in lipid reduced medium; assay type: cell-based; details: read-out: pIC50 LNCaP_Vancouver prostate cell (converted)
[5] = tested on: PC-3M-Luc-C6 prostate cells; assay: In vitro PC-3M-Luc-C6 prostate cell proliferation assay in lipid reduced medium; assay type: cell-based; details: 96 h, read-out: pIC50 PC-3M-Luc-C6 prostate cell (converted)
[6] = target: Fatty Acid Synthase Keto-reductase Domain (FASN KR) (Homo sapiens, UniProt P49327); assay: Fatty Acid Synthase keto-reductase domain (FASN KR) inhibition, NADPH oxidation at 340 nm
Chain of Fatty Acid Synthase Keto-reductase Domain (FASN KR) (P49327 whole entry, the tested form may be a part): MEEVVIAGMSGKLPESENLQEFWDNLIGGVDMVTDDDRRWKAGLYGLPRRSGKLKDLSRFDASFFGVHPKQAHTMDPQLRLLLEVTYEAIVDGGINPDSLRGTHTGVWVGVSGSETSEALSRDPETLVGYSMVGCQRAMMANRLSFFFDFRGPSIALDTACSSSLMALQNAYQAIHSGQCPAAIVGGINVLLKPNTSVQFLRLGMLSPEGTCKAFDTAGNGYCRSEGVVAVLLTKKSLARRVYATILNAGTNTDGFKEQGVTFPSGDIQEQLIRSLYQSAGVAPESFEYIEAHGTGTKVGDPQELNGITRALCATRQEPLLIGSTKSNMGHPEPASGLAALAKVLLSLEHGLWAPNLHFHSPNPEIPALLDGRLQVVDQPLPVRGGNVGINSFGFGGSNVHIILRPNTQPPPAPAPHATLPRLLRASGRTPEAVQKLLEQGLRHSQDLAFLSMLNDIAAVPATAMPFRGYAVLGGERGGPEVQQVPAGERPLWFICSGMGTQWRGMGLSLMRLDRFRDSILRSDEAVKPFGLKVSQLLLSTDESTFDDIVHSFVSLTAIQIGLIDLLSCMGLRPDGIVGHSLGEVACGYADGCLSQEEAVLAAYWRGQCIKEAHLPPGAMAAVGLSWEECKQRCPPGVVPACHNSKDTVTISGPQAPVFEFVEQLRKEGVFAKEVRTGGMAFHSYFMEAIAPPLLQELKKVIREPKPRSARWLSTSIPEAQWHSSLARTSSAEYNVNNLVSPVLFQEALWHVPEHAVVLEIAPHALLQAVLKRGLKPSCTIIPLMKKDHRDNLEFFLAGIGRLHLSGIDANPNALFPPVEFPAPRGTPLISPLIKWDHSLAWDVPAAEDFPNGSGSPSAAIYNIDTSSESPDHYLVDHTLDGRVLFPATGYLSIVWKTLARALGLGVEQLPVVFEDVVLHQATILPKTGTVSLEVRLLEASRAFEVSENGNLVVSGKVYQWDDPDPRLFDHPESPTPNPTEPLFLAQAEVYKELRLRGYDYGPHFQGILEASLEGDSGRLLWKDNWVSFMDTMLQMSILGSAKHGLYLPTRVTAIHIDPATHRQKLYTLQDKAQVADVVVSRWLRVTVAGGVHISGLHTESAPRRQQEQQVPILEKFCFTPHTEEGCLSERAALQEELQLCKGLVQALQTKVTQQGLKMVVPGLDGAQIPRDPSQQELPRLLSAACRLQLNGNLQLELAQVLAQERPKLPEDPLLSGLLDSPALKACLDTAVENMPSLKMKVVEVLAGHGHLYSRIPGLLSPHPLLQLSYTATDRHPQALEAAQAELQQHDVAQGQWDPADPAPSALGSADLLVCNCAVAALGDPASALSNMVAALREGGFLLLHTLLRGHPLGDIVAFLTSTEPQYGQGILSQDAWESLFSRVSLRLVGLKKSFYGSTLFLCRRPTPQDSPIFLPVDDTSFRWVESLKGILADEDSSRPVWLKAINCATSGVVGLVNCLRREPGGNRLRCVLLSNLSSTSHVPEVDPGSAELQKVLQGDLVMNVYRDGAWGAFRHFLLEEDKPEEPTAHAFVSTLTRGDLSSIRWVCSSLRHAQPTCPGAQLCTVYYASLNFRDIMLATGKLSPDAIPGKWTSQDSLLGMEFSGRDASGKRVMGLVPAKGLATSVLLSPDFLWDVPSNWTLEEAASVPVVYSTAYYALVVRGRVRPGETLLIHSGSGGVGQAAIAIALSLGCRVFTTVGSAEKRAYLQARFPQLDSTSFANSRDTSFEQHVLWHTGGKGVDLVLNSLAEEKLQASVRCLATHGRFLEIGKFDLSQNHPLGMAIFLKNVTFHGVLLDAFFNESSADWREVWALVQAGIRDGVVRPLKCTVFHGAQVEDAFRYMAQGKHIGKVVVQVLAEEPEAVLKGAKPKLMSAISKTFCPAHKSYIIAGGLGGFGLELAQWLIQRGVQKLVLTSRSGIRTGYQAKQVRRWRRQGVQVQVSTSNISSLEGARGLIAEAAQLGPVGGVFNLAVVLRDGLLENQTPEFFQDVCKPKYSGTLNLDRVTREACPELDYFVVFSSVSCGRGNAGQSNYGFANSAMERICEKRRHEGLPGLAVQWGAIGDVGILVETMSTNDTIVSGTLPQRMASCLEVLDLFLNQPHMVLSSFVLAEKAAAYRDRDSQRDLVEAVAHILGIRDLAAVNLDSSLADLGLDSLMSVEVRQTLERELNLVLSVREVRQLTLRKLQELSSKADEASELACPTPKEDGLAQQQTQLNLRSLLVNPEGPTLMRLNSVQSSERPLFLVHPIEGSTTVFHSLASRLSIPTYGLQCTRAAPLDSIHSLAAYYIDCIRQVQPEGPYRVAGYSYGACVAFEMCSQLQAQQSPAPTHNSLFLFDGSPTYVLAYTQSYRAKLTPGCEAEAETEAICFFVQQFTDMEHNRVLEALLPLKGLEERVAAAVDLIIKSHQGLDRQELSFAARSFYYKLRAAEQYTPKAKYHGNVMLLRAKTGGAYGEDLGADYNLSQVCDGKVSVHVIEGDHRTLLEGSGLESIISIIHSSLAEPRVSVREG
Experimental: After 20 minutes incubation at room temperature the plate was measured again (T2).
The decrease in absorbance was calculated as (Absorbance before incubation T1)−(Absorbance following incubation T2).
A plot of Controlmin versus test compound concentration was fitted to a 4-parameter logistic curve using a non-linear least squares regression method.

T1 sequence (P49327 whole entry): as the sequence (P49327 whole entry, the tested form may be a part) above

Row | Structure (SMILES) | inhibition at 10 µM [1] | IC50 [1] | IC50 (A2780 ovarian cells [2]) | IC50 (A2780 ovarian cells [3]) | IC50 [4] | IC50 [5] | IC50 [6]
1 | COc1cccc2ccc(-c3ccc(C4=NC5(CC5)C(=O)N4CC4CN(C(=O)C5CC5)C4)c(F)c3)cc12 [compound 380, 6-((1-(cyclopropanecarbonyl)azetidin-3-yl)methyl)-5-(2-fluoro-4-(8-methoxynaphthalen-2-yl)phenyl)-4,6-diazaspiro[2.4]hept-4-en-7-one] | 100% | 66.1 nM | > 10 µM | 132 nM | 1150 nM | 309 nM | 95.5 nM
2 | O=C(N1CC[C@@H](CN2C(=O)C3(CC3)N=C2c2ccc(-c3ccc4cc(F)ccc4c3)cc2F)C1)C1(O)CC1 [compound 381, (R)-5-(2-fluoro-4-(6-fluoronaphthalen-2-yl)phenyl)-6-((1-(1-hydroxycyclopropanecarbonyl)pyrrolidin-3-yl)methyl)-4,6-diazaspiro[2.4]hept-4-en-7-one] | 98% | 22.9 nM | > 10 µM | ~2.51 nM | 10.5 nM | 1.91 nM | 35.5 nM
3 | Cn1cc(-c2ccc(-c3ccc(C4=NC5(CC5)C(=O)N4CC4CN(C(=O)C5(O)CC5)C4)c(F)c3)cc2)cn1 [compound 382, 5-(3-fluoro-4′-(1-methyl-1H-pyrazol-4-yl)-[1,1′-biphenyl]-4-yl)-6-((1-(1-hydroxycyclopropanecarbonyl)azetidin-3-yl)methyl)-4,6-diazaspiro[2.4]hept-4-en-7-one] | 99% | 25.1 nM | > 10 µM | ~6.76 nM | 55 nM | 26.9 nM | 66.1 nM
4 | O=C(N1CC(CN2C(=O)C3(CC3)N=C2c2ccc(-c3ccc4cc(Cl)ccc4c3)cc2F)C1)C1(O)CC1 [compound 383, 5-(4-(6-chloronaphthalen-2-yl)-2-fluorophenyl)-6-((1-(1-hydroxycyclopropanecarbonyl)azetidin-3-yl)methyl)-4,6-diazaspiro[2.4]hept-4-en-7-one] | 102% | 24 nM | ~4.68 µM | 10.5 nM | 50.1 nM | ~18.2 nM | 61.7 nM
5 | O=C(N1CC(CN2C(=O)C3(CC3)N=C2c2ccc(-c3ccc4ccc(F)cc4c3)cc2F)C1)C1(O)CC1 [compound 384, 5-(2-fluoro-4-(7-fluoronaphthalen-2-yl)phenyl)-6-((1-(1-hydroxycyclopropanecarbonyl)azetidin-3-yl)methyl)-4,6-diazaspiro[2.4]hept-4-en-7-one] | 100% | 63.1 nM | 5.25 µM | 72.4 nM | 832 nM | 166 nM | ~851 nM
6 | CC1(C(=O)N2CC(CN3C(=O)C4(CC4)N=C3c3ccc(-c4ccc5cc(C#N)ccc5c4)cc3F)C2)CC1 [compound 385, 6-(3-fluoro-4-(6-((1-(1-methylcyclopropanecarbonyl)azetidin-3-yl)methyl)-7-oxo-4,6-diazaspiro[2.4]hept-4-en-5-yl)phenyl)-2-naphthonitrile] | 103% | 22.9 nM | ~2.57 µM | ~3.63 nM | 18.6 nM | ~4.79 nM | 43.7 nM
7 | O=C(C1CC1)N1CC[C@@H](CN2C(=O)C3(CC3)N=C2c2ccc(-c3ccc4occc4c3)cn2)C1 [compound 390, 5-[5-(1-Benzofuran-5-yl)pyridin-2-yl]-6-{[(3R)-1-(cyclopropylcarbonyl)pyrrolidin-3-yl]methyl}-4,6-diazaspiro[2.4]hept-4-en-7-one] | 99% | 324 nM | > 10 µM | ~2630 nM | 2750 nM | 1480 nM | 676 nM

Reference: US10077261B2, “Imidazolin-5-one derivative useful as FASN inhibitors for the treatment of cancer” (Janssen Pharmaceutica NV, priority 2012, dated 2018)
